Measurements as given in patent publication US5079241A, “Cephalosporin derivatives and pharmaceutical compositions in which they are present” (Sanofi, priority 1987, dated 1992).
≈ marks a conversion by molar mass, not a printed value. Each block holds one molecule with its values, some of them ahead of it.

Tests used:
[1] = pharmacokinetic behavior in baboons, 20 mg/kg (Tables 4 and 6); type: in vivo; conditions: baboon; for Cmax: read-out: Max plasma concentration; for half-life: read-out: t1/2 β; for AUC(0-t) at 6 h: trapezium method; for concentration at 0.5 h: 30 minutes; for concentration at 0.75 h: 45 minutes; for concentration at 1 h: 60 minutes; for concentration at 1.5 h: 90 minutes; for concentration at 2 h: 120 minutes; for concentration at 3 h: 180 minutes; for concentration at 4 h: 240 minutes; for concentration at 5 h: 300 minutes; for concentration at 5.5 h: 330 minutes; for dose excreted at 6 h: urine, 6 h (Table 6), read-out: Excretion in the urine
Procedure: (§1) Furthermore, the pharmacokinetic behavior of the products according to the invention was studied in baboons after administration at a dose of 20 mg/kg by intramuscular injection or intravenous injection.
(§2) Blood samples taken at various times after administration are used to determine the plasma concentration of the product studied by microbiological assay.
(§3) It is thus possible to construct the curve showing the plasma concentration as a function of time, and to determine different pharmacokinetic parameters of the compound studied:
(§4) the elimination half-life (t1/2 β) is calculated by the formula [formula] in which β represents the elimination gradient or slope;
(§5) the area under the curve (AUC) is determined by the trapezium method.
(§6) The plasma concentrations obtained with various products of the invention are collated in Tables 4 and 5. They are expressed in μg/ml.

[2] = protein binding by comparing two standard scales in baboon plasma and phosphate buffer; type: in vitro ADME; conditions: baboon plasma vs phosphate buffer (pH 7, 0.03M)
Excerpt: Furthermore, the protein binding is obtained by comparing two standard scales, one being prepared in baboon plasma and the other in phosphate buffer (pH 7, 0.03M).

[3] = system: Proteus vulgaris GN 76/C-1; assay: bacteriostatic action in vitro by the dilution method (MIC); type: cell-based; conditions: GN76, read-out: minimum inhibitory concentrations (MIC)
Procedure: (§7) The bacteriostatic action was determined in vitro by the dilution method. The study was carried out on both Gram-positive strains and Gram-negative strains.
(§8) The results for various products according to the invention, expressed as minimum inhibitory concentrations (MIC - μg/ml), are collated in Table 3.

[4] = system: Escherichia coli C1/Col E1::Tn3; assay: as above; type: cell-based; conditions: read-out: minimum inhibitory concentrations (MIC)
Procedure: as §7, §8

[5] = system: Escherichia coli SOL RL 90; assay: as above; type: cell-based; conditions: SOLRL90, read-out: minimum inhibitory concentrations (MIC)
Procedure: as §7, §8

[6] = system: Pseudomonas aeruginosa NCTC 8203; assay: as above; type: cell-based; conditions: NCTC8203, read-out: minimum inhibitory concentrations (MIC)
Procedure: as §7, §8

Providencia 155 = assay: as above; type: cell-based; conditions: read-out: minimum inhibitory concentrations (MIC)
Procedure: as §7, §8

[7] = system: Klebsiella pneumoniae R30; assay: as above; type: cell-based; conditions: read-out: minimum inhibitory concentrations (MIC)
Procedure: as §7, §8

Staph. aureus Smith = assay: as above; type: cell-based; conditions: Staphylococcus aureus, read-out: minimum inhibitory concentrations (MIC)
Procedure: as §7, §8

[8] = pharmacokinetic behavior in baboons, 20 mg/kg (Tables 5 and 7); type: in vivo
Procedure: as §1, §2, §3, §4, §5, §6

[9] = plasma, 20 mg/kg, 20 mg/kg (Table 6), read-out: Plasma concentration at 6 h
[10] = plasma, 20 mg/kg, 360 minutes, read-out: plasma concentration

Tmax ([1]; plasma, 20 mg/kg (Table 6)): 0.75 h
Cmax ([1]; plasma, 20 mg/kg (Table 6)): 69.5 µg/mL
half-life ([1]; plasma, 20 mg/kg (Table 6)): 3.25 h
AUC(0-t) at 6 h ([1]; plasma, 20 mg/kg (Table 6)): 284 µg·h/mL
concentration at 6 h [1, 9]: 17.3 µg/mL
concentration at 10 min ([1]; plasma, 20 mg/kg): 20.8 µg/mL
concentration at 20 min ([1]; plasma, 20 mg/kg, 20 minutes): 36.8 µg/mL
concentration at 0.5 h ([1]; plasma, 20 mg/kg): 44.4 µg/mL
concentration at 0.75 h ([1]; plasma, 20 mg/kg): 59.3 µg/mL
concentration at 1 h ([1]; plasma, 20 mg/kg): 60 µg/mL
concentration at 1.5 h ([1]; plasma, 20 mg/kg): 55.5 µg/mL
concentration at 2 h ([1]; plasma, 20 mg/kg): 53.3 µg/mL
concentration at 3 h ([1]; plasma, 20 mg/kg): 40 µg/mL
concentration at 4 h ([1]; plasma, 20 mg/kg): 36.2 µg/mL
concentration at 5 h ([1]; plasma, 20 mg/kg): 27.2 µg/mL
concentration at 5.5 h ([1]; plasma, 20 mg/kg): 23.7 µg/mL
concentration at 6 h [1, 10]: 17.3 µg/mL
dose excreted at 6 h ([1]; 20 mg/kg): 23%
fraction unbound [2]: 0.55
SMILES: CC(C)(ON=C(C(=O)NC1C(=O)N2C(C(=O)O)=C(COC(=O)c3ccc(NC(=O)CN)cc3)CSC12)c1csc(N)n1)C(=O)O (stereo not shown) [Product A, reference compound]

SMILES: CO/N=C(\C(=O)NC1C(=O)N2C(C(=O)O)=C(COC(=O)c3ccc(NC(=O)[C@@H](N)CCCN)c(O)c3)CSC12)c1csc(N)n1 (stereo partly shown) [SR 44219]
MIC [3]: 16 µg/mL (≈ 24.1 µM)
MIC [4]: 0.12 µg/mL (≈ 0.181 µM)
MIC [5]: 0.12 µg/mL (≈ 0.181 µM)
MIC [6]: 1 µg/mL (≈ 1.51 µM)
MIC (Providencia 155): 1 µg/mL (≈ 1.51 µM)
MIC [7]: 4 µg/mL (≈ 6.04 µM)
MIC (Staph. aureus Smith): 0.5 µg/mL (≈ 0.754 µM)

SMILES: CC(C)(O/N=C(\C(=O)NC1C(=O)N2C(C(=O)O)=C(COC(=O)c3ccc(NC(=O)CCN)c(O)c3)CSC12)c1csc(N)n1)C(=O)O (stereo not shown) [SR 43904]
MIC [3]: 0.25 µg/mL (≈ 0.361 µM)
MIC [4]: 0.25 µg/mL (≈ 0.361 µM)
MIC [5]: 2 µg/mL (≈ 2.89 µM)
MIC [6]: 1 µg/mL (≈ 1.45 µM)
MIC (Providencia 155): 1 µg/mL (≈ 1.45 µM)
MIC [7]: 1 µg/mL (≈ 1.45 µM)
MIC (Staph. aureus Smith): 4 µg/mL (≈ 5.78 µM)
Tmax ([1]; plasma, 20 mg/kg (Table 6)): 1.5 h
Cmax ([1]; plasma, 20 mg/kg (Table 6)): 94.1 µg/mL
half-life ([1]; plasma, 20 mg/kg (Table 6)): 4.42 h
AUC(0-t) at 6 h ([1]; plasma, 20 mg/kg (Table 6)): 348 µg·h/mL
concentration at 6 h [1, 9]: 34.3 µg/mL
concentration at 10 min ([1]; plasma, 20 mg/kg): 12.6 µg/mL
concentration at 0.5 h ([1]; plasma, 20 mg/kg): 52.4 µg/mL
concentration at 0.75 h ([1]; plasma, 20 mg/kg): 73 µg/mL
concentration at 1 h ([1]; plasma, 20 mg/kg): 76.1 µg/mL
concentration at 1.5 h ([1]; plasma, 20 mg/kg): 94.1 µg/mL
concentration at 2 h ([1]; plasma, 20 mg/kg): 76.1 µg/mL
concentration at 3 h ([1]; plasma, 20 mg/kg): 59.7 µg/mL
concentration at 4 h ([1]; plasma, 20 mg/kg): 57.3 µg/mL
concentration at 5 h ([1]; plasma, 20 mg/kg): 53.4 µg/mL
concentration at 5.5 h ([1]; plasma, 20 mg/kg): 39.9 µg/mL
concentration at 6 h [1, 10]: 34.3 µg/mL
dose excreted at 6 h ([1]; 20 mg/kg): 17%
fraction unbound [2]: 0.29

SMILES: CO/N=C(\C(=O)NC1C(=O)N2C(C(=O)O)=C(COC(=O)c3ccc(NC(=O)CCN)c(O)c3)CSC12)c1csc(N)n1 (stereo not shown) [SR 43853]
MIC [3]: 16 µg/mL (≈ 25.8 µM)
MIC [4]: 0.06 µg/mL (≈ 0.0968 µM)
MIC [5]: 0.25 µg/mL (≈ 0.403 µM)
MIC [6]: 2 µg/mL (≈ 3.23 µM)
MIC (Providencia 155): 1 µg/mL (≈ 1.61 µM)
MIC [7]: 4 µg/mL (≈ 6.46 µM)
MIC (Staph. aureus Smith): 0.25 µg/mL (≈ 0.403 µM)

Plasma concentration at 24 h ([8]; 20 mg/kg (Table 7)): 7.7 µg/mL
Plasma concentration at 48 h ([8]; 20 mg/kg (Table 7)): 0.6 µg/mL
Cmax ([8]; baboon, plasma, 20 mg/kg (Table 7), read-out: Maximum plasma concentration): 233 µg/mL
half-life ([8]; baboon, plasma, 20 mg/kg (Table 7), read-out: t1/2 β (converted)): 6.3 h
AUC(0-inf) ([8]; baboon, plasma, 20 mg/kg (Table 7), trapezium method, read-out: AUC 0-.infin.): 1210 µg·h/mL
concentration at 0.08 h ([8]; baboon, plasma, 20 mg/kg, 0.08 hours): 233 µg/mL
concentration at 0.16 h ([8]; baboon, plasma, 20 mg/kg, 0.16 hours): 213 µg/mL
concentration at 0.25 h ([8]; baboon, plasma, 20 mg/kg, 0.25 hours): 190 µg/mL
concentration at 0.33 h ([8]; baboon, plasma, 20 mg/kg, 0.33 hours): 170 µg/mL
concentration at 0.5 h ([8]; baboon, plasma, 20 mg/kg, 0.5 hours): 124 µg/mL
concentration at 0.75 h ([8]; baboon, plasma, 20 mg/kg, 0.75 hours): 121 µg/mL
concentration at 1 h ([8]; baboon, plasma, 20 mg/kg, 1 hours): 120 µg/mL
concentration at 1.5 h ([8]; baboon, plasma, 20 mg/kg, 1.5 hours): 112 µg/mL
concentration at 2 h ([8]; baboon, plasma, 20 mg/kg, 2 hours): 98.4 µg/mL
concentration at 3 h ([8]; baboon, plasma, 20 mg/kg, 3 hours): 72.9 µg/mL
concentration at 4 h ([8]; baboon, plasma, 20 mg/kg, 4 hours): 68.7 µg/mL
concentration at 5 h ([8]; baboon, plasma, 20 mg/kg, 5 hours): 62.1 µg/mL
concentration at 6 h ([8]; baboon, plasma, 20 mg/kg, 6 hours): 54.4 µg/mL
concentration at 24 h ([8]; baboon, plasma, 20 mg/kg, 24 hours): 7.7 µg/mL
concentration at 48 h ([8]; baboon, plasma, 20 mg/kg, 48 hours): 0.6 µg/mL
dose excreted at 6 h ([8]; baboon, urine, 20 mg/kg (Table 7), read-out: Excretion in urine at 6 h): 18%
SMILES: CC(C)(ON=C(C(=O)NC1C(=O)N2C(C(=O)O)=C(COC(=O)c3ccc(NS(=O)(=O)CCN)cc3)CSC12)c1csc(N)n1)C(=O)O (stereo not shown) [C, reference compound]
